Calls of active or inactive are those of the source. The rule behind the calls is not given here.

The subject of assay [1] is Human immunodeficiency virus 1. Nature of the assay: Antiviral activity against HIV1 LAI in MT2 cells. It is filed as functional, organism-based. To be noted: Human immunodeficiency virus 1, LAI.
Assay [2] concerns the target Protease (Human immunodeficiency virus 1) (UniProt Q9YQ12). Nature of the assay: Inhibition of HIV1 protease dimerization in COS7 cells at 1 uM.
Assay [3] concerns the target Protease (Human immunodeficiency virus 1, UniProt Q9YQ12). The assay can be described thus: Inhibition of HIV1 protease.

Protease, sequence (Q9YQ12 whole entry): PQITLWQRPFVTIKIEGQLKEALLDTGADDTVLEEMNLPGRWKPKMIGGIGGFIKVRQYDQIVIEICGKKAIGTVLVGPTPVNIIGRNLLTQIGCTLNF
Protease (Human immunodeficiency virus 1), sequence (Q9YQ12 as listed by the source): as the sequence (Q9YQ12 whole entry) above

One may read the IC50 as the concentration needed to halve the response being measured. Higher therefore signals lower potency. With `COc1ccc(S(=O)(=O)N(CC(C)C)C[C@@H](O)[C@H](Cc2ccccc2)NC(=O)C[C@H]2CO[C@H]3OCC[C@@H]23)cc1`, the midpoint of inhibition in assay [1], the IC50, lay at 480 nM. For the same molecule, the outcome in assay [2] was Active.

For `CCC[C@@]1(CCc2ccccc2)CC(O)=C([C@H](CC)c2cccc(NS(=O)(=O)c3ccc(C(F)(F)F)cn3)c2)C(=O)O1`, the IC50 in assay [1] came to 100 nM.

With `CC(C)CN(C[C@@H](O)[C@H](Cc1ccccc1)NC(=O)O[C@H]1CO[C@H]2OCC[C@H]21)S(=O)(=O)c1ccc(N)cc1`, the IC50 in assay [1] turned out to be 3.4 nM. In assay [2], the outcome was Active.

In assay [1], `COc1ccc(S(=O)(=O)N(CC(C)C)C[C@@H](O)[C@H](Cc2ccccc2)NC(=O)O[C@H]2CO[C@H]3OCC[C@H]32)cc1` had an IC50 of 0.3 nM. In addition, the result in assay [2] was Active.

Usually Ki stands for the equilibrium dissociation constant of an inhibitor or competing ligand from its target. In turn, `Cc1nc(COc2ccc(C[C@H](NC(=O)O[C@H]3CO[C@H]4OCC[C@H]43)[C@H](O)CN(CC(C)C)S(=O)(=O)c3ccc4c(c3)OCO4)cc2)cs1` [BRECANAVIR] gave an IC50 in assay [1] of 0.2 nM. The affinity in assay [3], expressed as Ki, was 0.0068 nM. For the same molecule, the result in assay [2] was Active.

As to `CC(C)CN(C[C@@H](O)[C@H](Cc1ccccc1)NC(=O)O[C@H]1CO[C@H]2OCC[C@H]21)S(=O)(=O)c1ccc2c(c1)OCO2`, in assay [1], the IC50 was 0.4 nM. This molecule had a Ki in assay [3] of 0.014 nM. Also, the result in assay [2] was Active.

Take `CC(C)CN(C[C@@H](O)[C@H](CSc1ccccc1)NC(=O)O[C@@H]1C[C@@H]2CCO[C@@H]2C1)S(=O)(=O)c1ccc(CO)cc1`: the IC50 in assay [1] came out at 5 nM. In assay [3], this molecule yielded a Ki of 0.029 nM. In assay [2], the outcome was Active.

`CC(C)CN(C[C@@H](O)[C@H](Cc1ccccc1)NC(=O)O[C@@H]1C[C@@H]2CCO[C@@H]2C1)S(=O)(=O)c1ccc(CO)cc1` came in with an IC50 in assay [1] of 1.4 nM. Moreover, the Ki in assay [3] was 0.0035 nM. Besides, the outcome in assay [2] was Active.

(Values after ChEMBL document CHEMBL1147040, “Potent inhibition of HIV-1 replication by novel non-peptidyl small molecule inhibitors of protease dimerization” (J Biol Chem, 2007).)
